For assay [1], the target named is T1, Metabotropic glutamate receptor 4 (Homo sapiens, UniProt Q14833). Kind of assay: Positive allosteric modulation of human mGlu4 receptor expressed in BHK cells assessed as potentiation of glutamate-induced calcium mobilization by FLIPR analysis. It is filed as functional, cell-based. On the technique in general: A change in cytosolic calcium serves as a functional read-out for many receptors and channels.

Assay [2] has as its target T1, Metabotropic glutamate receptor 4. Kind of assay: Positive allosteric modulation of human mGlu4 receptor expressed in BHK cells assessed as potentiation of glutamate-induced calcium mobilization by FLIPR analysis relative to PHCCC. It is filed as functional, cell-based.

Experimental findings from ChEMBL document CHEMBL2021760, “4-(1-Phenyl-1H-pyrazol-4-yl)quinolines as novel, selective and brain penetrant metabotropic glutamate receptor 4 positive allosteric modulators” (Bioorg Med Chem Lett, 2012) are described below.

pEC50: −log10 of the molar value.

T1 sequence (Q14833 whole entry): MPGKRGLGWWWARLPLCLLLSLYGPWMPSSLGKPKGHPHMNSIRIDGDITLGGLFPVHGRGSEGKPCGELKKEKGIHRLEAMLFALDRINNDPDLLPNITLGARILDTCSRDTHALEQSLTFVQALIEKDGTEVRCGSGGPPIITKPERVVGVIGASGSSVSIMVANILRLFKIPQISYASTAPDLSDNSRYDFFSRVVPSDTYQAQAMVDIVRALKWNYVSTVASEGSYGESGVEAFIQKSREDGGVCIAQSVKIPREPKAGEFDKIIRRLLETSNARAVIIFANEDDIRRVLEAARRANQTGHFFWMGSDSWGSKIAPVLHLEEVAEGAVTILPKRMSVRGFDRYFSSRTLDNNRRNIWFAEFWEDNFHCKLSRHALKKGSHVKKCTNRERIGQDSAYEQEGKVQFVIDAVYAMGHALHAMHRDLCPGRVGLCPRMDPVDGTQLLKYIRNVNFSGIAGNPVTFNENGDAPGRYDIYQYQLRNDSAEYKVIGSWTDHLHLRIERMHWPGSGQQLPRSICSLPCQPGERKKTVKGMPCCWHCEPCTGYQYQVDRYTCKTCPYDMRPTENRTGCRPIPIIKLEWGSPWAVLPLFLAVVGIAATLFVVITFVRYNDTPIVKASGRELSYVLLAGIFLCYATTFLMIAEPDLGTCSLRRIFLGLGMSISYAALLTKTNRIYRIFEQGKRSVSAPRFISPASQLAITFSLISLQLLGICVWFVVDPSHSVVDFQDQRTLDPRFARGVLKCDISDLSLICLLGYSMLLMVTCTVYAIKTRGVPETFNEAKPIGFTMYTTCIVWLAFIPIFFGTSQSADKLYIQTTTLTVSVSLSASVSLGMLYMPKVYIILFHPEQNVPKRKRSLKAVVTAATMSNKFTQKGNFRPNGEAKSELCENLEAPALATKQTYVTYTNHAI

In the case of `c1ccc(-n2cc(-c3ccnc4cc(OCCCN5CCCCC5)ccc34)cn2)cc1`, the pEC50 in assay [1] is below 5.00. Moreover, the Emax in assay [2] came out at 23%.
For `CC(=O)N1CCN(CCOc2ccc3c(-c4cnn(-c5ccccc5)c4)ccnc3c2)CC1` the same measures were 6.16 and 75%.
For `Fc1ccc2c(-c3cnn(-c4ccccc4)c3)ccnc2c1` the same measures were 6.14 and 120%.
Take `c1ccc(-n2cc(-c3ccnc4cc(OCCN5CCCC5)ccc34)cn2)cc1`: the pEC50 in assay [1] is below 5.00. Moreover, the Emax in assay [2] was 9%.
For `FC(F)(F)c1ccc2c(-c3cnn(-c4ccccc4)c3)ccnc2c1` the same measures were 6.26 and 140%.
Regarding `Oc1ccc2c(-c3cnn(-c4ccccc4)c3)ccnc2c1`, the pEC50 in assay [1] was below 5.00. Moreover, the Emax in assay [2] stood at 4%.
Taken in the same sequence, the figures for `c1ccc(-n2cc(-c3ccnc4cc(OCCCN5CCOCC5)ccc34)cn2)cc1` were 5.55 and 64%.
Turning to `O=C(Oc1ccc2c(-c3cnn(-c4ccccc4)c3)ccnc2c1)N1CCCC1`, the pEC50 in assay [1] is 6.30. For the same compound, in assay [2], the Emax was determined as 120%.
Turning to `Fc1ccc(-n2cc(-c3ccnc4ccccc34)cn2)cc1`, the pEC50 in assay [1] is 5.54. Moreover, the Emax in assay [2] amounted to 110%.
For `Fc1cccc(-n2cc(-c3ccnc4ccccc34)cn2)c1` the same measures were 5.51 and 92%.
Taken in the same sequence, the figures for `Cc1nn(-c2ccccc2)cc1-c1ccnc2ccccc12` were 6.32 and 130%.
Regarding `c1ccc(COc2ccc3c(-c4cnn(-c5ccccc5)c4)ccnc3c2)cc1`, the pEC50 in assay [1] was 6.19. Also, the Emax in assay [2] worked out at 110%.
Consider `c1ccc(-n2cc(-c3n[nH]c4ccccc34)cn2)cc1`, for which the negative logarithm of the EC50 (pEC50) in assay [1] was 5.62. In addition, in assay [2], the Emax was found to be 42%.
Taken in the same sequence, the figures for `c1ccc(-n2cc(-c3ccncc3)cn2)cc1` were below 5.00 and 39%.
For `c1ccc(-n2cc(-c3ccnc4[nH]ccc34)cn2)cc1` the same measures were 5.57 and 47%.
Take `c1ccc(-n2cc(-c3ccnc4c3CCC4)cn2)cc1`: the pEC50 in assay [1] was 5.64. In assay [2], the Emax turned out to be 65%.
For `O=C(COc1ccc2c(-c3cnn(-c4ccccc4)c3)ccnc2c1)N1CCOCC1` the same measures were below 5.00 and 17%.
Taken in the same sequence, the figures for `COCCCOc1ccc2c(-c3cnn(-c4ccccc4)c3)ccnc2c1` were 6.60 and 88%.
For `COCCOc1ccc2c(-c3cnn(-c4ccccc4)c3)ccnc2c1`, the pEC50 in assay [1] is 6.41. In assay [2], the Emax worked out at 110%.
Taken in the same sequence, the figures for `c1ccc(-n2cc(-c3ccnc4cc(OCCN5CCOCC5)ccc34)cn2)cc1` were 5.74 and 39%.
`c1ccc(-n2cc(-c3ccnc4cc(OCCCN5CCCC5)ccc34)cn2)cc1`: the negative-log EC50 (pEC50) in assay [1] is below 5.00. The Emax in assay [2] was 7%.
Turning to `CN(C)C(=O)Oc1ccc2c(-c3cnn(-c4ccccc4)c3)ccnc2c1`, the pEC50 in assay [1] was 6.02. The Emax in assay [2] was 82%.
On to `c1ccc2c(-c3cn[nH]c3)ccnc2c1`, for which the pEC50 in assay [1] is below 5.00. For the same compound, the Emax in assay [2] came to 6%.
In the case of `CN(C)C(=O)COc1ccc2c(-c3cnn(-c4ccccc4)c3)ccnc2c1`, in assay [1], the pEC50 is below 5.00. For the same compound, the Emax in assay [2] was 11%.
Turning to `Cc1c(-c2ccnc3ccccc23)cnn1-c1ccccc1`, the negative-log EC50 (pEC50) in assay [1] is 6.17. In addition, the Emax in assay [2] was found to be 130%.
For `c1ccc(-n2cc(-c3ccnc4cc(OCCN5CCCCC5)ccc34)cn2)cc1` the same measures were 5.22 and 71%.
Consider `Cc1nccc(-c2cnn(-c3ccccc3)c2)c1C`, for which, in assay [1], the pEC50 was 5.92. Further, in assay [2], the Emax is 40%.
For `c1ccc(-n2cc(-c3ncnc4ccccc34)cn2)cc1` the same measures were 5.46 and 35%.
As for `O=C(Oc1ccc2c(-c3cnn(-c4ccccc4)c3)ccnc2c1)N1CCOCC1`, the negative-log EC50 (pEC50) in assay [1] is 6.05. Besides, the Emax in assay [2] amounted to 84%.
Consider `OCCCOc1ccc2c(-c3cnn(-c4ccccc4)c3)ccnc2c1`, for which, in assay [1], the pEC50 was below 5.00. In addition, the Emax in assay [2] turned out to be 23%.
Taken in the same sequence, the figures for `c1ccc(-n2cc(-c3ccnc4ccccc34)cn2)nc1` were 5.68 and 92%.
As for `c1csc(-n2cc(-c3ccnc4ccccc34)cn2)c1`, the pEC50 in assay [1] was 5.37. The Emax in assay [2] amounted to 52%.
With `CCOc1ccc2c(-c3cnn(-c4ccccc4)c3)ccnc2c1`, the pEC50 in assay [1] is 6.27. For the same compound, in assay [2], the maximum response (Emax) turned out to be 93%.
`O=C(Oc1ccc2c(-c3cnn(-c4ccccc4)c3)ccnc2c1)N1CCCCC1`: in assay [1], the pEC50 was 6.72. In addition, the Emax in assay [2] stood at 130%.
For the compound `CCNC(=O)Oc1ccc2c(-c3cnn(-c4ccccc4)c3)ccnc2c1`, the pEC50 in assay [1] is 5.00. In addition, the Emax in assay [2] came to 86%.
On to `Clc1ccc2c(-c3cnn(-c4ccccc4)c3)ccnc2c1`, for which the pEC50 in assay [1] was 6.23. For the same compound, in assay [2], the Emax was 100%.
Consider `Cc1cnccc1-c1cnn(-c2ccccc2)c1`, for which, in assay [1], the pEC50 was 5.29. Further, in assay [2], the Emax worked out at 90%.
Taken in the same sequence, the figures for `c1ccc(-n2cc(-c3c[nH]c4ccccc34)cn2)cc1` were 5.60 and 44%.
Regarding `Fc1ccccc1-n1cc(-c2ccnc3ccccc23)cn1`, the pEC50 in assay [1] is 5.96. Besides, the Emax in assay [2] stood at 70%.
For `Cc1nn(-c2ccccc2)c(C)c1-c1ccnc2ccccc12` the same measures were 6.08 and 150%.
Taken in the same sequence, the figures for `CN(C)CCOc1ccc2c(-c3cnn(-c4ccccc4)c3)ccnc2c1` were below 5.00 and 23%.

In general, pEC50 refers to the negative decadic logarithm of the EC50, by convention in mol/L. The term Emax denotes the greatest response seen or fitted, relative to the assay's reference.
